These are literature values, as cited in US20140100272A1, “METHODS OF ADMINISTERING COMPOSITIONS COMPRISING DOCOSAPENTAENOIC ACID” (Matinas BioPharma, Inc., priority 2012, published 2014).

SMILES strings stand for the structures.

The conditions of this data set: in vivo.

`CC[C@H](C)C(=O)O[C@H]1C[C@@H](C)C=C2C=C[C@H](C)[C@H](CC[C@@H]3C[C@@H](O)CC(=O)O3)[C@H]21` [lovastatin]: the absorbed at rates result is given as “about 30%”.
